Laboratory results as given in US20050229260A1, “Compound screens relating to insulin deficiency or insulin resistance” (DevGen NV, priority 2000, published 2005).

Experiments:
protein phosphatase 2A = protein phosphatase 2A inhibitor; cited from earlier work
PTP = PTP inhibitor; cited from earlier work
[1] = system: C. elegans strain DR1564: daf-2(m41)
Procedure: All screening was done at 20 μM compound concentration in quadruplicates, except 2000 compounds of Diverset in triplicates. Confirmation was done at 4 concentrations. Questionable dose responses were repeated, if necessary at lower concentrations and/or 2 fold dilution steps. All worms that bypassed dauer stage, L4s and adults, were counted under a Leica MZ12 dissection scope and together referred to as number of adults per well. […] Data were transferred to Excel files and average and variance of the 8 controls of each plate calculated and plotted.
The number of wells was plotted against the number of adults per well and a negative binomial distribution fitted by maximum likelihood. […]
Then the number of adults per well where the cumulative negative binomial distribution was closest to 99% was determined and referred to as 1% cut-off. […]
The plates were then screened through quickly to find wells with a high number adults, which were counted and if found to reach the cut-off value the position on the lid was circled and the exact value written in the circle. […] Finally the transparent lids of the 4 replicate plates were stacked on top of each other and by looking through them it was determined whether 2 or more lids were circled in any position. […]

In the case of `CC1(C(=O)O)C2CCC(O2)C1(C)C(=O)O` (stereo not drawn) [Cantharidic acid], the IC50 (protein phosphatase 2A) is given as 0.053 µM.
In the case of `CN(N=O)c1cc(O)ccc1O` [Dephostatin], the IC50 (PTP) is given as 7.7 µM.
With `COC[C@H]1OC(=O)c2coc3c2[C@@]1(C)C1=C(C3=O)[C@@H]2CCC(=O)[C@@]2(C)C[C@H]1OC(C)=O` [Wortmannin] the “active in the assay” value [1] was “active”.
